Results reported in US5298411A, “Glucose dehydrogenase from pseudomonas” (Toyo Boseki Kabushiki Kaisha, priority 1990, dated 1994).
Read-outs that look alike come from different tables or passages of the source.

Legend:
Format in all cases: biochemical, Pseudomonas sp. FH1227
[1] = test system: glucose dehydrogenase (EC1.1.1.47); assay: Substrate specificity of the glucose dehydrogenase (enzyme activity determination); settings: for Relative activity (%): Substrate (100 mM), β-D-glucose = 100.0
From the text: (2) Substrate specificity
(§1) (11) Enzyme activity determination
(A) 0.1M Tris-HCl buffer, pH 8.0
(§2) Calculation equation: [formula]
1.0=optical path length (cm)

[2] = test system: glucose dehydrogenase (EC1.1.1.47); assay: Km value determination
[3] = test system: glucose dehydrogenase (EC1.1.1.47)
Experimental: as §1
The enzyme activity was determined by taking the enzyme activity producing 1 micromole of NADH per 1 minute under the conditions mentioned below as 1 unit.
1. The following reaction mixture is prepared in a cuvette (d=1 cm) and preheated at 37° C. for about 5 minutes.
2. An enzyme solution (0.05 ml) is added thereto, and the mixture is gently stirred. The change of absorbance at 340 nm is recorded for 5 minutes using a spectrophotometer controlled at 37° C. with water as the control. The change of absorbance per 1 minute is estimated on the basis of the linear portion from minute 2 to minute 5. (ΔOD test)
3. The blank test is conducted by following the same procedure as above except that 0.05 ml of […] (with phosphate buffer, pH 7.0) is used in place of the enzyme solution, to estimate the change in absorbance per 1 minute. (ΔOD blank)
as §2

[4] = read-out: Km value to the coenzyme
[5] = inhibitor concentration 2.0 × 10^-3 M, non added = 100.0

Row | Molecule | Relative activity (%) [1] [%] | other results
1 | 2-deoxy-glucose | 119.7 | Substrate specificity [1]: specifically acts on
2 | O=C(CO)[C@@H](O)[C@H](O)[C@H](O)CO [D-fructose] | 0.8 | 
3 | OC[C@H]1OC(O)[C@H](O)[C@@H](O)[C@H]1O (stereo partly drawn) [D-galactose] | 0.1 | 
4 | OC[C@H]1O[C@@H](O[C@H]2[C@H](O)[C@@H](O)C(O)O[C@@H]2CO)[C@H](O)[C@@H](O)[C@H]1O (stereo partly drawn) [D-lactose] | 1.2 | 
5 | OC[C@@H](O)[C@@H](O)[C@H](O)[C@H](O)CO [D-mannitol] | 0.0 | 
6 | OC[C@H]1OC(O)[C@@H](O)[C@@H](O)[C@@H]1O (stereo partly drawn) [D-mannose] | 2.4 | 
7 | OC[C@@H](O)[C@@H](O)[C@H](O)[C@@H](O)CO [D-sorbitol] | 0.1 | 
8 | OC[C@@H]1OC(O)[C@@H](O)[C@H](O)[C@H]1O (stereo partly drawn) [L-glucose] | 0.0 | 
9 | O=C(CO)[C@@H](O)[C@H](O)[C@@H](O)CO [L-sorbose] | 0.3 | 
10 | NC(=O)c1ccc[n+]([C@@H]2O[C@H](COP(=O)([O-])OP(=O)(O)OC[C@H]3O[C@@H](n4cnc5c(N)ncnc54)[C@H](OP(=O)(O)O)[C@@H]3O)[C@@H](O)[C@H]2O)c1 [NADP] |  | Km [2, 4]: 0.0407 mM
11 | NC(=O)c1ccc[n+]([C@@H]2O[C@H](COP(=O)([O-])OP(=O)(O)OC[C@H]3O[C@@H](n4cnc5c(N)ncnc54)[C@H](O)[C@@H]3O)[C@@H](O)[C@H]2O)c1 [NAD] |  | Km [2, 4]: 0.308 mM
12 | O[C@H]1[C@H](O)[C@@H](O)[C@H](O)[C@@H](O)[C@H]1O [inositol] | 0.2 | 
13 | OC[C@H]1O[C@H](O[C@H]2[C@H](O)[C@@H](O)[C@H](O)O[C@@H]2CO)[C@H](O)[C@@H](O)[C@@H]1O [maltose] | 3.9 | 
14 | [Cl][Hg][Cl] [mercury chloride] |  | Inhibition of the enzyme [3]: inhibited; Relative activity (%) [3, 5]: 5.9%
15 | O=C(O)CI [monoiodoacetate] |  | Inhibition of the enzyme [3]: inhibited; Relative activity (%) [3]: 0.4%
16 | OC[C@H]1O[C@@](CO)(O[C@H]2O[C@H](CO)[C@@H](O)[C@H](O)[C@H]2O)[C@@H](O)[C@@H]1O [saccharose] | 0.0 | 
17 | O=[N+]([O-])[O-].[Ag+] [silver nitrate] |  | Inhibition of the enzyme [3]: inhibited; Relative activity (%) [3, 5]: 7.1%
18 | OC[C@H]1O[C@@H](O)[C@H](O)[C@@H](O)[C@@H]1O [β-D-glucose] | 100.0 | Km ([2]; coenzyme NAD, read-out: Km value to β-D-glucose): 13.8 mM; Km ([2]; coenzyme NADP, read-out: Km value to β-D-glucose): 12.5 mM; Substrate specificity [1]: specifically acts on
19 | xylose | 8.9 | 
